These are literature values, as cited in patent US5939423A, “Treatment of hepatitis B infection with thymosin alpha 1 and famciclovir” (priority 1997, dated 1999).

Ends that are not written are not given here.

Assay in series [1]: not given
The source holds these as a separate data set.

For series [2], the system named is HBV. The following applies: 10 day course, 250 mg or 500 mg tid.
In series [3] the test system is HBV. The following applies: named patients.
For series [4] the following is noted: more than 3000 patients.
For series [5] the following is noted: single and repeat doses up to 1000 mg three times daily for six days.
Series [6] deals with HBV. The following applies: in vivo.
The next series relates to duck hepatitis B virus. The following applies: for maintenance of suppression of HBV DNA and DNA polymerase during treatment: 21 days of treatment; for maintenance of suppression of HBV DNA and DNA polymerase during treatment / DNA polymerase level / HBV DNA level: oral twice a day, penciclovir 20 and 100 mg/kg, famciclovir 5 and 25 mg/kg; for inhibition of duck hepatitis B viral replication: Peking duck; for HBV DNA and DNA polymerase levels after the post-dosing suppression: later than two days after dosing had stopped; for DNA polymerase level / HBV DNA level: within two days of start.

The test system of series [7] is HBV. The following applies: preliminary data; up to 500 mg three times a day for 16 weeks.
For series [8], the system named is HBV.
For series [9], the system named is woodchuck hepatitis virus (WHV).
Series [10] concerns HBV. The note with it: 1.45 to 1.75 mg (adults) per twice-weekly injection.
The subject of another series is HBV infection. The following applies: treatment of HBV infection.
The subject of a further series is T4 (helper/inducer)cells. The following applies: by activation of the T4 (helper/inducer) cells.
In series [11] the test system is HBV. The source holds these as a separate data set.
In series [12] the test system is HBV. The source holds these as a separate data set.
The next series relates to anti-HBs. The note with it: previously non-reactive hemodialysis patients.
The conditions of series [13]: in vivo.
Series [14] relates to HBV. The source holds these as a separate data set.
The mark [15] stands for this setting: 12 patients received TF5 or Tα1, p<0.004 vs placebo, Fisher's exact test.
Where [16] appears, read: during the 1 yr study or post study follow up, p<0.11 vs placebo.
[17] abbreviates: n = 49, 1.6 mg s.c. 2×/week, 6 months, p value 0.084 vs placebo.
The mark [18] stands for this setting: n = 49, 1.6 mg s.c. 2×/week, 6 months, p value ns.

`CC(=O)OCC(CCn1cnc2cnc(N)nc21)COC(C)=O` [famciclovir, diacetylester of 6-deoxy penciclovir]: the conversion to penciclovir result (removal of one ester group) was “partly in the intestinal wall”. In addition, the “completion of conversion to penciclovir” value (removal of remaining ester group, oxidation at the 6-position) is reported as “completed in the liver”. In series [1] (oral, volunteers), the absorption entry is on record as “well absorbed”. Further, the “fall in HBV DNA levels” value with HBV [2] (in 6 of 11 evaluable patients) is listed as “greater than 90%”. In the series with HBV [2] (of 11 evaluable patients), the “evaluable patients with greater than 90% fall in HBV DNA levels” value is listed as 6. The “efficacy in patients with HBV reinfection following liver transplantation” value in the series on HBV [3] is “shown efficacy”. The “most common adverse experiences” value in [4] was “headache, nausea and diarrhea”. Further, in series [5], the “drug-related adverse effects on clinical laboratory values, blood pressure, heart rates or ECG measurements” value is “no evidence of drug-related adverse effects”. Further, in the series with HBV [6], the safety profile result is “good safety profile” and the “suppressing HBV replication” value was “effective in suppressing HBV replication”. In the series with duck hepatitis B virus, the “maintenance of suppression of HBV DNA and DNA polymerase during treatment” value is listed as “maintained this suppression during the 21 days”; the “inhibition of duck hepatitis B viral replication” value is “clearly inhibit”; the “suppression of viral replication after dosing had stopped” value is “remained suppressed for at least two days”; the “HBV DNA and DNA polymerase levels after the post-dosing suppression” value is “returned to pre-treatment levels”. Also, in the series with duck hepatitis B virus, the DNA polymerase level entry is recorded as “undetectable” and the “HBV DNA level” value was “undetectable”. Moreover, in the series with HBV [7], the “reduction in HBV DNA and ALT levels” value was “significant reduction”.
`Nc1ccn([C@@H]2CS[C@H](CO)O2)c(=O)n1` [lamivudine]: in the series on HBV [6], the safety profile result is given as “good safety profile” and the “suppressing HBV replication” value is “effective in suppressing HBV replication”.
For `Nc1nc2c(ncn2CCC(CO)CO)c(=O)[nH]1` [penciclovir], in the series on zoster, the “efficacy against zoster virus” value is recorded as “proven efficacy”. Moreover, in series [1] (oral penciclovir alone, 5 mg/kg dose), the “Cmax (penciclovir)” value is “approximately 0.14 microgram/ml”. Also, in the series with herpes simplex, the “efficacy against herpes simplex virus” value is on record as “proven efficacy”. Also, the “reduction in HBV DNA by 6 day” value with HBV [8] (1 microgram/ml, by 6 day) was 50%. Also, in the series with HBV [8] (1 microgram/ml, by day 9), the “reduction in HBV DNA by day 9” value is given as 90%. Further, in the series with HBV [8] (2.2.15 hepatoma cells), the “concentration dependence of HBV DNA reduction” value is reported as “concentration dependent” and the “inhibition of HBV in human cells” value was “potent inhibitor”. In addition, in the series with duck hepatitis B virus, the “maintenance of suppression of HBV DNA and DNA polymerase during treatment” value is “maintained this suppression during the 21 days”; the “inhibition of duck hepatitis B viral replication” value is given as “clearly inhibit”; the “suppression of viral replication after dosing had stopped” value is given as “remained suppressed for at least two days”; the “HBV DNA and DNA polymerase levels after the post-dosing suppression” value is reported as “returned to pre-treatment levels”. In the series on duck hepatitis B virus, the DNA polymerase level entry is listed as “undetectable” and the “HBV DNA level” value is listed as “undetectable”.
For “Tα1: 28 amino acid peptide with a molecular weight of 3108, initially isolated from Thymus Fraction 5, sequenced and chemically synthesized (SDAAVDTSSEITTKDLKEKKEVVEEAEN; ends and bridges not checked; UniProt P06454 2-29, looked up)”, the “change of WHV DNA replication intermediates from pretreatment levels” value in series [9] (liver biopsy, the other 2 animals, end of treatment) was “only a small change”. Further, in [9] (of 6 animals, 10 μg/Kg s.c. twice weekly, 28 weeks), the “treated animals with undetectable WHV DNA levels” value is reported as 4. The “depression of WHV DNA levels” value in [9] (remaining 2 animals, 10 μg/Kg s.c. twice weekly, 28 weeks) is recorded as 100 fold. The “safety and effectiveness in clearing HBV DNA from the blood” value in the series on HBV [10] is “safe and effective”. Moreover, in the series with HBV infection, the immune responsiveness result is listed as “enhances immune responsiveness” and the specific lymphocyte parameters entry was “augments specific lymphocyte parameters to significantly higher levels”. For the same compound, the “allogenic and autologous human mixed lymphocyte reactions” value in the series on T4 (helper/inducer)cells was “enhances”. The “modulating the maturation of T cells” value with T cells is “activity similar to TF5”. Besides, the “lymphocyte IL2 receptor expression” value with normal human lymphocytes is listed as “increase”. Moreover, the “interferon-alpha, interferon-gamma, and IL2 and IL3 production” value with normal human lymphocytes (normal human lymphocytes) is recorded as “promote”. Moreover, in the series on HBV [11] (setting [15]), the “number of patients who cleared serum HBV DNA” value is listed as “Nine” and the “patients who cleared serum HBV DNA” value is on record as 75%. Also, the “peripheral blood lymphocyte, CD3 and CD4 counts, and in vitro production of interferon-gamma” value in the series on HBV [11] (associated with response, over initial values) is “significant improvements”. Besides, in the series on HBV [11] (of the responders), the “responders with sustained remission with normal ALT levels and negative serum HBV DNA (using PCR) and HBeAg” value is “About 78%”. For the same compound, the side effects result with HBV [11] (twice weekly for six months) is “No side effects were observed”. In addition, the serum aminotransferase levels result in the series with HBV [11] (twice weekly for six months, conclusion of the study (1 year)) is “improved significantly”. Besides, in the series with HBV [12] (setting [16]), the “sustained loss of HBV DNA with negative HBeAg” value is 25% and the “sustained loss of HBV DNA with negative HBeAg, number of patients” value is 12. In addition, in the series with HBV [12] (setting [17]), the “CR (%) (complete response)” value is listed as 14% and the “CR (complete response), number of patients” value is listed as 7. In the series on HBV [12] (setting [18]), the “DR (%) (delayed response)” value was 10%; the “DR (delayed response), number of patients” value was 5; the “IR (%) (incomplete response)” value was 0%; the “IR (incomplete response), number of patients” value is listed as 0. Also, the “in vivo production of anti-HBs following Heptavax-B vaccination” value with anti-HBs is recorded as “enhance”. Further, in series [13], the “local or systemic side effects” value is recorded as “no local or systemic side effects have been observed”.
In the case of interferon-alpha, in the series on HBV [14] (Asian patients), the “clear HBeAg” value is 15-20%. Further, the “sustained clearance of hepatitis B e antigen (HBeAg)” value in the series on HBV [14] (North America and European patients) was 30-40%. Besides, the “clear HBsAg” value with HBV [14] (of the Asian patients who clear HBeAg) is recorded as “approximately 10%”. Also, the “ultimately cleared hepatitis B surface antigen (HBsAg)” value in the series on HBV [14] (of the North America and European patients with HBeAg clearance) was 25-65%.
